Laboratory results reported in patent US7179597B2, “Genetic diagnosis for QT prolongation related adverse drug reactions” (Georgetown University, priority 2000, dated 2007).
Entries after “also recorded” stand apart in the source; their conditions may differ. Where two headings read alike, the source gives them in different places.

Experiments:
[1] = cited from earlier work
[2] = cited from earlier work; remark: listed apart in the source
CYP3A = conditions: Table 3; cited from earlier work
CYP2D6 = CYP2D6 (Homo sapiens, UniProt P10635); conditions: Table 3; cited from earlier work
CYP2C19 = CYP2C19 (Homo sapiens, UniProt P33261); conditions: Table 3; cited from earlier work
healthy volunteers = test: ECG QTc assessment after ibutilide infusion in healthy volunteers; format: in vivo, human
Procedure: ECG analysis is one method of assessing arrhythmias, such as prolonged QT intervals. Ibutilide or any other pharmaceutical agent to be studied, can be assessed using an ECG. […] All ECGs were 12 lead and were recorded on a computer disc and on paper at a speed of 50 mm/sec, with the subject in a stationary, resting, supine position.

[3] = Table 2, FDA / medical literature

Sequence of CYP2D6 (P10635 whole entry): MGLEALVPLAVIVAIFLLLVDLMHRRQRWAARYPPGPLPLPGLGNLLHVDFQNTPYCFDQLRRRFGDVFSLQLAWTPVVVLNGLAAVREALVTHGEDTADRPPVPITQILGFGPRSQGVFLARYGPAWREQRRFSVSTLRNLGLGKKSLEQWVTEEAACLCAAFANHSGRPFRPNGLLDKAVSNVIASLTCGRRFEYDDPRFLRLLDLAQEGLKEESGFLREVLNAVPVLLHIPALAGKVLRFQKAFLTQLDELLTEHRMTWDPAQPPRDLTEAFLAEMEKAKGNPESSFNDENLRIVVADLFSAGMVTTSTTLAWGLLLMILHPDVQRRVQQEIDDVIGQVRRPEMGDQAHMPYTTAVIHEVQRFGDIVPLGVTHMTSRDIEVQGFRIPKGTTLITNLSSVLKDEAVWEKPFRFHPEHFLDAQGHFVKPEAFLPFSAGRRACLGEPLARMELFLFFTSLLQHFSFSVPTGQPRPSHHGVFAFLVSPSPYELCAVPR
Sequence of CYP2C19 (P33261 whole entry, the tested form may be a part): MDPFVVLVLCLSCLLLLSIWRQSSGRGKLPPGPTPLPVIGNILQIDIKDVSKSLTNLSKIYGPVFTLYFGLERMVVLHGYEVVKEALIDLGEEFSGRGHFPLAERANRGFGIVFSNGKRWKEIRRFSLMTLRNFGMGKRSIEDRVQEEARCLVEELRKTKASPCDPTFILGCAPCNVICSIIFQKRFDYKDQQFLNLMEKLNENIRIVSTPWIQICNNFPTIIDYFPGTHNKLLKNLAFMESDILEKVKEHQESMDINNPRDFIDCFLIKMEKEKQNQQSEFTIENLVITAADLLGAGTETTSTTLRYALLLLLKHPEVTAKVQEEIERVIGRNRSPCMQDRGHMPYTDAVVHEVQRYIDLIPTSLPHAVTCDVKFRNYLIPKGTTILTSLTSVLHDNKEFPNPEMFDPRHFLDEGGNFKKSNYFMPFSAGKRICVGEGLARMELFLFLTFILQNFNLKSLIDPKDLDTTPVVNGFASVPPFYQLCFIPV

Compound	TdP [1, 3]	QT ([2]; Table 2, drug labeling)	also measured
CCCCc1oc2ccccc2c1C(=O)c1cc(I)c(OCCN(CC)CC)c(I)c1 [Amiodarone]	Yes		TdP ([1]; Table 3): Yes
Clc1ccc2c(c1)C(N1CCNCC1)=Nc1ccccc1O2 [Amoxapine]		Yes	
COc1ccc(CCN2CCC(Nc3nc4ccccc4n3Cc3ccc(F)cc3)CC2)cc1 [Astemizole]	Yes	Yes	TdP ([1]; Table 3): Yes; Interactions: cytochrome P-450 isoform 3A, substrate or inhibitor (CYP3A): Substrate; QT ([2]; Table 3): Yes
CN1CCCC(n2nc(Cc3ccc(Cl)cc3)c3ccccc3c2=O)CC1 (stereo not shown) [Azelastine]		Yes	
CC(C)COCC(CN(Cc1ccccc1)c1ccccc1)N1CCCC1 (stereo not shown) [Bepridil]	Yes	Yes	
CN(C)CCCN1c2ccccc2Sc2ccc(Cl)cc21 [Chlorpromazine]	Yes	Yes	
COc1cc(N)c(Cl)cc1C(=O)NC1CCN(CCCOc2ccc(F)cc2)CC1OC (stereo not shown) [Cisapride]	Yes	Yes	TdP ([1]; Table 3): Yes; Interactions: cytochrome P-450 isoform 3A, substrate or inhibitor (CYP3A): Substrate; QT ([2]; Table 3): Yes
CC[C@H]1OC(=O)[C@H](C)[C@@H](O[C@H]2C[C@@](C)(OC)[C@@H](O)[C@H](C)O2)[C@H](C)[C@@H](O[C@@H]2O[C@H](C)C[C@H](N(C)C)[C@H]2O)[C@](C)(OC)C[C@@H](C)C(=O)[C@H](C)[C@@H](O)[C@]1(C)O [Clarithromycin]		Yes	QT ([2]; Table 3): Yes
CN1CCC[C@@H]1CCO[C@](C)(c1ccccc1)c1ccc(Cl)cc1 [Clemastine]	Maybe—		TdP ([1]; Table 3): Maybe—
CNCCCN1c2ccccc2CCc2ccccc21 [Desipramine]		Yes	Interactions: cytochrome P-450 isoform 2D6, substrate or inhibitor (CYP2D6): Substrate; QT ([2]; Table 3): Yes
CC(C)N(CCC(C(N)=O)(c1ccccc1)c1ccccn1)C(C)C (stereo not shown) [Disopyramide]	Yes	Yes	
CN(C)CCC=C1c2ccccc2COc2ccccc21 [Doxepin]	Yes	Yes	
CC[C@H]1OC(=O)[C@H](C)[C@@H](O[C@H]2C[C@@](C)(OC)[C@@H](O)[C@H](C)O2)[C@H](C)[C@@H](O[C@@H]2O[C@H](C)C[C@H](N(C)C)[C@H]2O)[C@](C)(O)C[C@@H](C)C(=O)[C@H](C)[C@@H](O)[C@]1(C)O [Erythromycin]		Yes	QT ([2]; Table 3): Yes
NC(=O)OCC(COC(N)=O)c1ccccc1 [Felbamate]	Yes	Yes?	TdP ([1]; Table 3): Yes; Interactions: cytochrome P-450 isoform 2C19, substrate or inhibitor (CYP2C19): Inhibitor; QT ([2]; Table 3): Yes
O=C(NCC1CCCCN1)c1cc(OCC(F)(F)F)ccc1OCC(F)(F)F (stereo not shown) [Flecainide]		Yes	Interactions: cytochrome P-450 isoform 2D6, substrate or inhibitor (CYP2D6): Substrate; QT ([2]; Table 3): Yes
C[C@]12CCC(=O)C=C1CC[C@H]1[C@@H]3CC[C@](O)(C(=O)CO)[C@@]3(C)C[C@H](O)[C@@]12F [Fludrocortisone]		Yes	
OCCN1CCN(CCCN2c3ccccc3Sc3ccc(C(F)(F)F)cc32)CC1 [Fluphenazine]	Yes	Yes	TdP ([1]; Table 3): Yes; QT ([2]; Table 3): Yes
O=C(O)P(=O)(O)O [Foscarnet]		Yes	
O=C1NC(c2ccccc2)(c2ccccc2)C(=O)N1COP(=O)(O)O [Fosphenytoin]		Yes	
CCCCN(CCCC)CCC(O)c1cc2c(Cl)cc(Cl)cc2c2cc(C(F)(F)F)ccc12 (stereo not shown) [Halofantrine]		Yes	Interactions: cytochrome P-450 isoform 2D6, substrate or inhibitor (CYP2D6): Inhibitor; QT ([2]; Table 3): Yes
CCCCCCCN(CC)CCCC(O)c1ccc(NS(C)(=O)=O)cc1 (stereo not shown) [Ibutilide]	Yes	Yes	Duration of QTc prolonging effect (healthy volunteers; 0.003 mg/kg intravenous single dose): almost dissipated by the end of two hours; Mean QTc prolongation over time (AUC, 60 minutes after infusion) (healthy volunteers; men versus women by menstrual phase, p<0.05): significantly smaller in men than in women; also recorded: significantly lower for women during the luteal phase and for men; Maximal change in QTc interval after infusion (healthy volunteers; men, 0.003 mg/kg intravenous single dose): 54 ± 28 ms; Maximal change in QTc interval after infusion (healthy volunteers; women, luteal phase, 0.003 mg/kg intravenous single dose): 53 ± 14 ms; Maximal change in QTc interval after infusion (healthy volunteers; women, menstrual phase, 0.003 mg/kg intravenous single dose): 63 ± 13 ms; Maximal change in QTc interval after infusion (healthy volunteers; women, ovulation phase, 0.003 mg/kg intravenous single dose): 59 ± 17 ms
CN(C)CCCN1c2ccccc2CCc2ccccc21 [Imipramine]		Yes	QT ([2]; Table 3): Yes
CC1Cc2ccccc2N1NC(=O)c1ccc(Cl)c(S(N)(=O)=O)c1 (stereo not shown) [Indapamide]	Maybe—	Yes	
COC(=O)C1=C(C)NC(C)=C(C(=O)OC(C)C)C1c1cccc2nonc12 (stereo not shown) [Isradipine]		Yes	
CCC(C)n1ncn(-c2ccc(N3CCN(c4ccc(OCC5COC(Cn6cncn6)(c6ccc(Cl)cc6Cl)O5)cc4)CC3)cc2)c1=O (stereo not shown) [Itraconazole]			Interactions: cytochrome P-450 isoform 3A, substrate or inhibitor (CYP3A): Inhibitor

Compound	TdP [1, 3]	QT ([2]; Table 2, drug labeling)	also measured
CC(=O)N1CCN(c2ccc(OCC3COC(Cn4ccnc4)(c4ccc(Cl)cc4Cl)O3)cc2)CC1 (stereo not shown) [Ketoconazole]			Interactions: cytochrome P-450 isoform 3A, substrate or inhibitor (CYP3A): Inhibitor; Interactions: cytochrome P-450 isoform 2C19, substrate or inhibitor (CYP2C19): Inhibitor
CNCCCC12CCC(c3ccccc31)c1ccccc12 [Maprotiline]	Yes	Yes	
CCOC(=O)Nc1ccc2c(c1)N(C(=O)CCN1CCOCC1)c1ccccc1S2 [Moricizine]	Yes		
CNS(=O)(=O)CCc1ccc2[nH]cc(C3CCN(C)CC3)c2c1 [Naratriptan]		Yes	
COC(=O)C1=C(C)NC(C)=C(C(=O)OCCN(C)Cc2ccccc2)C1c1cccc([N+](=O)[O-])c1 (stereo not shown) [Nicardipine]		Yes	
CNCCC=C1c2ccccc2CCc2ccccc21 [Nortriptyline]		Yes	
N=C(N)c1ccc(OCCCCCOc2ccc(C(=N)N)cc2)cc1 [Pentamidine]	Yes		
OCCN1CCN(CCCN2c3ccccc3Sc3ccc(Cl)cc32)CC1 [Perphenazine]		Yes	
O=c1[nH]c2ccccc2n1C1CCN(CCCC(c2ccc(F)cc2)c2ccc(F)cc2)CC1 [Pimozide]	Yes	Yes	
CCN(CC)CCNC(=O)c1ccc(N)cc1 [Procainamide]		Yes	
CNCCCC1c2ccccc2C=Cc2ccccc21 [Protriptyline]		Yes	QT ([2]; Table 3): Yes
OCCOCCN1CCN(C2=Nc3ccccc3Sc3ccccc32)CC1 [Quetiapine]		Yes	
C=C[C@H]1C[N@@]2CC[C@H]1C[C@@H]2[C@@H](O)c1ccnc2ccc(OC)cc12 [Quinidine]	Yes	Yes	TdP ([1]; Table 3): Yes; Interactions: cytochrome P-450 isoform 3A, substrate or inhibitor (CYP3A): Substrate; QT ([2]; Table 3): Yes
Cc1nc2n(c(=O)c1CCN1CCC(c3noc4cc(F)ccc34)CC1)CCCC2 [Risperidone]	Yes	Yes	TdP ([1]; Table 3): Yes; QT ([2]; Table 3): Yes
OCc1cc(C(O)CNCCCCCCOCCCCc2ccccc2)ccc1O (stereo not shown) [Salmeterol]		Yes	
CC(C)NCC(O)c1ccc(NS(C)(=O)=O)cc1 (stereo not shown) [Sotalol]		Yes	
C[C@@H]1CN(c2c(F)c(N)c3c(=O)c(C(=O)O)cn(C4CC4)c3c2F)C[C@H](C)N1 [Sparfloxacin]	Yes	Yes	
CNS(=O)(=O)Cc1ccc2[nH]cc(CCN(C)C)c2c1 [Sumatriptan]		Yes	
CN1CCN(CC/C=C2/c3ccccc3Sc3ccc(S(=O)(=O)N(C)C)cc32)CC1 [Thiothixene]	Yes	Yes	
Clc1ccc2nsnc2c1NC1=NCCN1 [Tizanidine]		Yes	
Cc1cccc(C)c1NC(=O)C(C)N (stereo not shown) [Tocainide]		Yes	
CN1CCN(CCCN2c3ccccc3Sc3ccc(C(F)(F)F)cc32)CC1 [Trifluoperazine]	Yes	Yes	
COc1ccc(C(CN(C)C)C2(O)CCCCC2)cc1 (stereo not shown) [Venlafaxine]		Yes	Interactions: cytochrome P-450 isoform 2D6, substrate or inhibitor (CYP2D6): Substrate; QT ([2]; Table 3): Yes
CN(C)CCc1c[nH]c2ccc(C[C@H]3COC(=O)N3)cc12 [Zolmitriptan]		Yes	
